According to ChEMBL document CHEMBL6092191, “Advancing Cancer Immunotherapy through Engineering New PD-L1 Degraders: A Comprehensive Study from Small Molecules to PD-L1-Specific Peptide-Drug Conjugates” (J Med Chem, 2024):
Active and inactive are the calls of the source. The calls are words filed in the database; no cut-off is given here.

Columns and labels:
[1] = target: COP9 signalosome complex subunit 5 (Homo sapiens) (UniProt Q92905); experiment: Induction of PD-L1 degradation in human PC-9 cells assessed as reduction in green signal at 10 uM incubated for 24 hrs by immunofluorescence staining based analysis; type: cell-based
Sequence of COP9 signalosome complex subunit 5 (Homo sapiens) (Q92905 2-334 limits assumed, one chain of several): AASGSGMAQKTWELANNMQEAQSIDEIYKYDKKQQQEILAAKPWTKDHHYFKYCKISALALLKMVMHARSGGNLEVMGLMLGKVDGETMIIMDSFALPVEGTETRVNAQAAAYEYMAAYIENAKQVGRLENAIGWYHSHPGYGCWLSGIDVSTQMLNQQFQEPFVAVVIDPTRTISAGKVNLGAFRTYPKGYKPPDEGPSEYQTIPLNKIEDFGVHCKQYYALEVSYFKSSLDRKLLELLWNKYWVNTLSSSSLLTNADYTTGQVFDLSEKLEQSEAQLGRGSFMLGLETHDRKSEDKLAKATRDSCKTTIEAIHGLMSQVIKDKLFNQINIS

[2] = test system: Lewis lung carcinoma cell line; experiment: Antitumor activity against Lewis lung carcinoma cells xenografted in C57BL/6 mouse model at 5 mg/kg, ip administered daily for 8 days relative to control; type: functional; conditions: 192 h, time 8 day, read-out: TGI
[3] = target: COP9 signalosome complex subunit 5 (Homo sapiens) (UniProt Q92905); experiment: Induction of PD-L1 degradation in […] cells incubated for 24 hrs by Western blot analysis; type: cell-based; conditions: Lewis lung carcinoma cell line, dose <= 100.0 µM
[4] = target: COP9 signalosome complex subunit 5 (Homo sapiens) (UniProt Q92905); experiment: Induction of PD-L1 degradation in human NCI-H460 cells overexpressing CSN5 by Western blot analysis; type: cell-based
[5] = target: COP9 signalosome complex subunit 5 (Homo sapiens) (UniProt Q92905); experiment: Induction of PD-L1 degradation in human NCI-H460 cells upto 40 uM in presence of chloroquine by Western blot analysis; type: cell-based
Mus musculus = experiment: In vivo induction of PD-L1 degradation in […] lung carcinoma cells xenografted in C57BL/6 mouse model at 10 mg/kg, ip administered daily for 10 days by IHC analysis; type: functional, organism-based; conditions: time 10.0 day
[6] = target: COP9 signalosome complex subunit 5 (Homo sapiens) (UniProt Q92905); experiment: Induction of PD-L1 degradation in […] cells at 10 uM by Western blot analysis; type: cell-based; conditions: Lewis lung carcinoma cell line, time <= 36.0 hrs
[7] = test system: Lewis lung carcinoma cell line; experiment: Anticancer activity against Lewis lung carcinoma cells xenografted in C57BL/6 mouse model at 10 mg/kg, ip administered daily for 10 days relative to control; type: functional; conditions: 240 h, time 10 day, read-out: TGI
[8] = target: COP9 signalosome complex subunit 5 (Homo sapiens) (UniProt Q92905); experiment: Induction of PD-L1 degradation in human PC-9 cells at 10 uM by Western blot analysis; type: cell-based; conditions: time <= 36.0 hrs
[9] = target: COP9 signalosome complex subunit 5 (Homo sapiens) (UniProt Q92905); experiment: Binding affinity to CSN5 in NCI-H460 cell lysate by Western blot analysis; type: subcellular
Lewis lung carcinoma = experiment: Effect on PD-L1 mRNA level in Lewis lung carcinoma cells at 10 uM incubated for 24 hrs by qRT-PCR analysis; type: functional, cell-based; conditions: Mus musculus
[10] = Toxicity in C57BL/6 mouse model xenografted with […] cells assessed as change in BUN level at 10 mg/kg, ip administered daily for 10 days; type: organism-based, Blood; conditions: in vivo, 240 h, time 10 day
[11] = target: COP9 signalosome complex subunit 5 (Homo sapiens) (UniProt Q92905); experiment: Induction of IFN-gamma-induced PD-L1 degradation in human HCC827 cells at 10 uM incubated for 24 hrs by Western blot analysis; type: cell-based
[12] = Toxicity in C57BL/6 mouse model xenografted with […] cells assessed as obvious damage in kidney at 10 mg/kg, ip administered daily for 10 days by H and E staining based analysis; type: organism-based; conditions: in vivo, 240 h, time 10 day
[13] = Toxicity in C57BL/6 mouse model xenografted with […] cells assessed as change in AST level at 10 mg/kg, ip administered daily for 10 days; type: organism-based, Blood; conditions: in vivo, 240 h, time 10 day
NCI-H1299 = experiment: Effect on IFN-gamma-induced PD-L1 mRNA expression in human NCI-H1299 cells at 10 uM by qRT-PCR analysis; type: functional, cell-based
NCI-H460 [14] = experiment: Effect on PD-L1 mRNA level in human NCI-H460 cells at 10 uM incubated for 24 hrs by qRT-PCR analysis; type: functional, cell-based
[15] = target: COP9 signalosome complex subunit 5 (Homo sapiens) (UniProt Q92905); experiment: Binding affinity to CSN5 in HEK293T cell lysate by Western blot analysis; type: subcellular
PC-9 = experiment: Antiproliferative activity against human PC-9 cells at 10 uM measured after 4 days by MTT assay; type: functional, cell-based; conditions: time 4.0 day
[16] = target: COP9 signalosome complex subunit 5 (Homo sapiens) (UniProt Q92905); experiment: Induction of PD-L1 degradation in human PC-9 cells incubated for 24 hrs by Western blot analysis; type: cell-based; conditions: dose <= 100.0 µM
[17] = Antiproliferative activity against human HTori-3 cells at 10 uM incubated for 4 days; type: toxicity, cell-based; conditions: htori-3, 96 h, time 4 day
HCC827 = experiment: Effect on IFN-gamma-induced PD-L1 mRNA expression in human HCC827 cells at 10 uM by qRT-PCR analysis; type: functional, cell-based
NCI-H460 [18] = experiment: Inhibition of cell survival of human NCI-H460 cells co-cultivated with activated T cells at 10 uM incubated for 2 days by crystal violet staining based analysis; type: functional; conditions: time 2.0 day
[19] = test system: Lewis lung carcinoma cell line; experiment: Antitumor T-cell immune response in Lewis lung carcinoma cells xenografted in C57BL/6 mouse model assessed as increase in ratio of CD8+ to CD4+ T cells in tumor at 5 mg/kg, ip administered daily for 8 days by flow cytometry; type: functional, organism-based; conditions: time 8.0 day
[20] = test system: Lewis lung carcinoma cell line; experiment: Anticancer activity against Lewis lung carcinoma cells xenografted in C57BL/6 mouse model assessed as tumor growth inhibition at 10 mg/kg, ip administered daily for 10 days; type: functional, organism-based; conditions: time 10.0 day
[21] = test system: Lewis lung carcinoma cell line; experiment: Antitumor T-cell immune response in Lewis lung carcinoma cells xenografted in C57BL/6 mouse model assessed as increase in GrB level in tumor at 10 mg/kg, ip administered daily for 10 days by ELISA; type: functional, organism-based; conditions: time 10.0 day
[22] = target: COP9 signalosome complex subunit 5 (Homo sapiens) (UniProt Q92905); experiment: Induction of IFN-gamma-induced PD-L1 degradation in human NCI-H1299 cells at 10 uM incubated for 24 hrs by Western blot analysis; type: cell-based
[23] = target: COP9 signalosome complex subunit 5 (Homo sapiens) (UniProt Q92905); experiment: Induction of PD-L1 degradation in human NCI-H460 cells at 10 uM incubated for 24 hrs by Western blot analysis; type: cell-based
[24] = test system: Lewis lung carcinoma cell line; experiment: Antitumor T-cell immune response in Lewis lung carcinoma cells xenografted in C57BL/6 mouse model assessed as increase in IFN-gamma level in tumor at 10 mg/kg, ip administered daily for 10 days by ELISA; type: functional, organism-based; conditions: time 10.0 day
[25] = test system: Lewis lung carcinoma cell line; experiment: Antiproliferative activity against Lewis lung carcinoma cells at 10 uM measured after 4 days by MTT assay; type: functional, cell-based; conditions: Mus musculus, time 4.0 day
[26] = target: COP9 signalosome complex subunit 5 (Homo sapiens) (UniProt Q92905); experiment: Induction of PD-L1 degradation in human NCI-H460 cells assessed as PD-L1 ubiquitination by Western blot analysis; type: cell-based
[27] = test system: Lewis lung carcinoma cell line; experiment: Antitumor T-cell immune response in Lewis lung carcinoma cells xenografted in C57BL/6 mouse model assessed as increase in TNF-alpha level in tumor at 10 mg/kg, ip administered daily for 10 days by ELISA; type: functional, organism-based; conditions: time 10.0 day
[28] = target: COP9 signalosome complex subunit 5 (Homo sapiens) (UniProt Q92905); experiment: Induction of PD-L1 degradation in human NCI-H460 cells incubated for 24 hrs by Western blot analysis; type: cell-based; conditions: dose <= 100.0 µM
[29] = test system: Lewis lung carcinoma cell line; experiment: Antitumor T-cell immune response in Lewis lung carcinoma cells xenografted in C57BL/6 mouse model assessed as increase in CD3+ CD8+ infiltration in CD45+ T cells in tumor at 10 mg/kg, ip administered daily for 10 days by flow cytometry; type: functional, organism-based; conditions: time 10.0 day
[30] = Toxicity in C57BL/6 mouse model xenografted with […] cells assessed as change in ALT level at 10 mg/kg, ip administered daily for 10 days; type: organism-based, Blood; conditions: in vivo, 240 h, time 10 day
[31] = test system: Lewis lung carcinoma cell line; experiment: Anticancer activity against Lewis lung carcinoma cells xenografted in C57BL/6 mouse model assessed as decrease in Ki-67 level at 10 mg/kg, ip administered daily for 10 days by IHC analysis; type: functional, organism-based; conditions: time 10.0 day
[32] = test system: Lewis lung carcinoma cell line; experiment: Antitumor T-cell immune response in Lewis lung carcinoma cells xenografted in C57BL/6 mouse model assessed as increase in ratio of CD8+ to CD4+ T cells in tumor at 10 mg/kg, ip administered daily for 10 days by flow cytometry; type: functional, organism-based; conditions: time 10.0 day
[33] = Toxicity in C57BL/6 mouse model xenografted with […] cells assessed as change in serum creatinine level at 10 mg/kg, ip administered daily for 10 days; type: organism-based; conditions: in vivo, 240 h, time 10 day

COc1cc2c(cc1OC)-c1cc3ccc(OC)c(OCCN)c3c[n+]1CC2.[Cl-]
Activity [1]: Active | inhibition in vivo at 5 mg/kg [2]: 66% | Activity [3]: Dose-dependent-effect | Activity [4]: inactive | Activity [5]: Active | Activity (Mus musculus): Active | Activity [6]: Time-dependent-effect | inhibition in vivo at 10 mg/kg [7]: 71% | Activity [8]: Time-dependent-effect | Activity [9]: Active | Activity (Lewis lung carcinoma): inactive | Activity [10]: Non-toxic | Activity [11]: Active | Activity [12]: Non-toxic | Activity [13]: Non-toxic | Activity (NCI-H1299): inactive | Activity (NCI-H460 [14]): inactive | Activity [15]: Active | Activity (PC-9): inactive | Activity [16]: Dose-dependent-effect | Activity [17]: Non-toxic | Activity (HCC827): inactive | inhibition (NCI-H460 [18]): Active | Activity [19]: Active | Activity [20]: Active | Activity [21]: Active | Activity [22]: Active | Activity [23]: Active; Most Effective Compound Among Pmt-O9 Derivatives | Activity [24]: Active | Activity [25]: inactive | Activity [26]: Active | Activity [27]: Active | Activity [28]: Dose-dependent-effect | Activity [29]: Active | Activity [30]: Non-toxic | Activity [31]: Active | Activity [32]: Active; Highest Enhancement Of Ratio Observed | Activity [33]: Non-toxic
